Tested on: 362531-283-R-J2-PDC complex spheroid viability
Assay: Anticancer human tumor 362531-283-R-J2-PDC patient-derived colon adenocarcinoma cell line growth inhibition [RAS]
Conditions: for viability, T/C: stronger effect = lower value
Summary of the method: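 Tumour cells grown as complex spheroids with HUVEC endothelial cells and mesenchymal stem cells, treated with RAS pathway inhibitor combinations. Each agent spans half-log steps from near clinical Cmax, or 10 microM where Cmax is unknown.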

[1] = curve of first compound, second compound 0.000949 µM
[2] = curve of first compound, second compound 0.003 µM
[3] = curve of first compound, second compound 0.00949 µM
[4] = curve of first compound, second compound 0.03 µM
[5] = curve of first compound, second compound 0.0949 µM
[6] = curve of first compound, second compound 0.3 µM
[7] = second compound 0.000949 µM, first compound 0.00316 µM
[8] = second compound 0.000949 µM, first compound 0.01 µM
[9] = second compound 0.000949 µM, first compound 0.0316 µM
[10] = second compound 0.000949 µM, first compound 0.1 µM
[11] = second compound 0.000949 µM, first compound 0.316 µM
[12] = second compound 0.000949 µM, first compound 1 µM
[13] = second compound 0.003 µM, first compound 0.00316 µM
[14] = second compound 0.003 µM, first compound 0.01 µM
[15] = second compound 0.003 µM, first compound 0.0316 µM
[16] = second compound 0.003 µM, first compound 0.1 µM
[17] = second compound 0.003 µM, first compound 0.316 µM
[18] = second compound 0.003 µM, first compound 1 µM
[19] = second compound 0.00949 µM, first compound 0.00316 µM
[20] = second compound 0.00949 µM, first compound 0.01 µM
[21] = second compound 0.00949 µM, first compound 0.0316 µM
[22] = second compound 0.00949 µM, first compound 0.1 µM
[23] = second compound 0.00949 µM, first compound 0.316 µM
[24] = second compound 0.00949 µM, first compound 1 µM
[25] = second compound 0.03 µM, first compound 0.00316 µM
[26] = second compound 0.03 µM, first compound 0.01 µM
[27] = second compound 0.03 µM, first compound 0.0316 µM
[28] = second compound 0.03 µM, first compound 0.1 µM
[29] = second compound 0.03 µM, first compound 0.316 µM
[30] = second compound 0.03 µM, first compound 1 µM
[31] = second compound 0.0949 µM, first compound 0.00316 µM
[32] = second compound 0.0949 µM, first compound 0.01 µM
[33] = second compound 0.0949 µM, first compound 0.0316 µM
[34] = second compound 0.0949 µM, first compound 0.1 µM
[35] = second compound 0.0949 µM, first compound 0.316 µM
[36] = second compound 0.0949 µM, first compound 1 µM
[37] = second compound 0.3 µM, first compound 0.00316 µM
[38] = second compound 0.3 µM, first compound 0.01 µM
[39] = second compound 0.3 µM, first compound 0.0316 µM
[40] = second compound 0.3 µM, first compound 0.1 µM
[41] = second compound 0.3 µM, first compound 0.316 µM
[42] = second compound 0.3 µM, first compound 1 µM
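Further: spheroids exposed to the agents for 7 days before readout.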
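Wherever viability, T/C is given: luminescence viability as percent of DMSO vehicle control wells.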

Nc1ccn(C2OC(CO)C(O)C2(F)F)c(=O)n1 (stereo not drawn) + CCn1c(-c2cccnc2C(C)OC)c2c3cc(ccc31)N1CCOC(CC(NC(=O)C(C(C)C)N(C)C(=O)C3(F)CCN(C(=O)C#CC(C)(C)N(C)C)CC3)C(=O)N3CCCC(N3)C(=O)OCC(C)(C)C2)C1
IC50 [1]: 169 nM
IC50 [2]: 153 nM
IC50 [3]: 177 nM
IC50 [4]: 189 nM
IC50 [5]: 132 nM
IC50 [6]: 163 nM
viability, T/C [7]: 100%
viability, T/C [8]: 95.5%
viability, T/C [9]: 69.5%
viability, T/C [10]: 77.3%
viability, T/C [11]: 22.2%
viability, T/C [12]: 31.3%
viability, T/C [13]: 103%
viability, T/C [14]: 92.9%
viability, T/C [15]: 77.6%
viability, T/C [16]: 68.5%
viability, T/C [17]: 22.9%
viability, T/C [18]: 33.2%
viability, T/C [19]: 103%
viability, T/C [20]: 93.2%
viability, T/C [21]: 73.4%
viability, T/C [22]: 77.4%
viability, T/C [23]: 19.2%
viability, T/C [24]: 25.5%
viability, T/C [25]: 111%
viability, T/C [26]: 83.5%
viability, T/C [27]: 86.8%
viability, T/C [28]: 82.2%
viability, T/C [29]: 20.1%
viability, T/C [30]: 27.6%
viability, T/C [31]: 100%
viability, T/C [32]: 91.7%
viability, T/C [33]: 69.5%
viability, T/C [34]: 69.6%
viability, T/C [35]: 19.7%
viability, T/C [36]: 26.8%
viability, T/C [37]: 96.2%
viability, T/C [38]: 90%
viability, T/C [39]: 73.3%
viability, T/C [40]: 69.2%
viability, T/C [41]: 23.2%
viability, T/C [42]: 24.2%

C=CC(=O)Nc1cc(Nc2nccc(-c3cn(C)c4ccccc34)n2)c(OC)cc1N(C)CCN(C)C + CCn1c(-c2cccnc2C(C)OC)c2c3cc(ccc31)N1CCOC(CC(NC(=O)C(C(C)C)N(C)C(=O)C3(F)CCN(C(=O)C#CC(C)(C)N(C)C)CC3)C(=O)N3CCCC(N3)C(=O)OCC(C)(C)C2)C1
IC50 [1]: > 1000 nM
IC50 [2]: > 1000 nM
IC50 [3]: > 1000 nM
IC50 [4]: > 1000 nM
IC50 [5]: > 1000 nM
IC50 [6]: > 1000 nM
viability, T/C [7]: 92.4%
viability, T/C [8]: 93.8%
viability, T/C [9]: 104%
viability, T/C [10]: 98.1%
viability, T/C [11]: 98%
viability, T/C [12]: 75.1%
viability, T/C [13]: 108%
viability, T/C [14]: 107%
viability, T/C [15]: 103%
viability, T/C [16]: 98.6%
viability, T/C [17]: 95.4%
viability, T/C [18]: 68.8%
viability, T/C [19]: 112%
viability, T/C [20]: 103%
viability, T/C [21]: 101%
viability, T/C [22]: 104%
viability, T/C [23]: 101%
viability, T/C [24]: 82.2%
viability, T/C [25]: 98.6%
viability, T/C [26]: 99.9%
viability, T/C [27]: 100%
viability, T/C [28]: 101%
viability, T/C [29]: 101%
viability, T/C [30]: 82.7%
viability, T/C [31]: 98.4%
viability, T/C [32]: 97.1%
viability, T/C [33]: 99%
viability, T/C [34]: 106%
viability, T/C [35]: 106%
viability, T/C [36]: 79.2%
viability, T/C [37]: 91.3%
viability, T/C [38]: 90.1%
viability, T/C [39]: 99.6%
viability, T/C [40]: 96.6%
viability, T/C [41]: 104%
viability, T/C [42]: 83.6%

CC(C)NCC(C(=O)N1CCN(c2ncnc3c2C(C)CC3O)CC1)c1ccc(Cl)cc1 (stereo not drawn) + CCn1c(-c2cccnc2C(C)OC)c2c3cc(ccc31)N1CCOC(CC(NC(=O)C(C(C)C)N(C)C(=O)C3(F)CCN(C(=O)C#CC(C)(C)N(C)C)CC3)C(=O)N3CCCC(N3)C(=O)OCC(C)(C)C2)C1
IC50 [1]: > 10000 nM
IC50 [2]: > 10000 nM
IC50 [3]: > 10000 nM
IC50 [4]: > 10000 nM
IC50 [5]: > 10000 nM
IC50 [6]: > 10000 nM
viability, T/C [9]: 97.8%
viability, T/C [10]: 106%
viability, T/C [11]: 91.4%
viability, T/C [12]: 94.4%
viability, T/C (second compound 0.000949 µM, first compound 3.16 µM): 101%
viability, T/C (second compound 0.000949 µM, first compound 10 µM): 93.5%
viability, T/C [15]: 103%
viability, T/C [16]: 105%
viability, T/C [17]: 94.4%
viability, T/C [18]: 92.9%
viability, T/C (second compound 0.003 µM, first compound 3.16 µM): 94.1%
viability, T/C (second compound 0.003 µM, first compound 10 µM): 101%
viability, T/C [21]: 92.9%
viability, T/C [22]: 100%
viability, T/C [23]: 95%
viability, T/C [24]: 98.8%
viability, T/C (second compound 0.00949 µM, first compound 3.16 µM): 98.3%
viability, T/C (second compound 0.00949 µM, first compound 10 µM): 99%
viability, T/C [27]: 104%
viability, T/C [28]: 87.4%
viability, T/C [29]: 96.7%
viability, T/C [30]: 86.2%
viability, T/C (second compound 0.03 µM, first compound 3.16 µM): 97.3%
viability, T/C (second compound 0.03 µM, first compound 10 µM): 100%
viability, T/C [33]: 92.2%
viability, T/C [34]: 91.1%
viability, T/C [35]: 103%
viability, T/C [36]: 88.1%
viability, T/C (second compound 0.0949 µM, first compound 3.16 µM): 94.9%
viability, T/C (second compound 0.0949 µM, first compound 10 µM): 94.3%
viability, T/C [39]: 90.8%
viability, T/C [40]: 94.1%
viability, T/C [41]: 97.8%
viability, T/C [42]: 91.9%
viability, T/C (second compound 0.3 µM, first compound 3.16 µM): 98.9%
viability, T/C (second compound 0.3 µM, first compound 10 µM): 92%

CC(=O)OC12COC1CC(O)C1(C)C(=O)C(O)C3=C(C)C(OC(=O)C(O)C(NC(=O)OC(C)(C)C)c4ccccc4)CC(O)(C(OC(=O)c4ccccc4)C21)C3(C)C (stereo not drawn)
viability, T/C (compound 0.0316 µM): 101% [middle of 4 runs]
viability, T/C (compound 0.1 µM): 90.8% [middle of 4 runs]
viability, T/C (compound 0.316 µM): 32.6% [middle of 4 runs]
viability, T/C (compound 1 µM): 21.6% [middle of 4 runs]
viability, T/C (compound 3.16 µM): 27.5% [middle of 4 runs]
viability, T/C (compound 10 µM): 36% [middle of 4 runs]
IC50 (curve of compound): 226 nM [middle of 4 runs]
